Experimental data published in EP4574175A1, “PRODRUG FOR ANTI-AGING RELATED DISEASES AND USE METHOD THEREFOR” (BEIJING SUNCELL BIO-MEDICAL CO., LTD., priority 2022, dated 2024).

How the values were obtained:
Format in all cases: cell-based, human
non-senescent HEF cells = assay: Cell killing activity assay (CCK-8), Example 7; details: 25 µM
Method: (§1) Preparation of the cell plates: The non-senescent, and the induced senescent HEF cells and A549 cells were taken respectively, digested with trypsin, and centrifuged at 1000 rmp for 5 minutes. The supernatants were removed, and the cells were resuspended in fresh DMEM medium containing 10% foetal bovine serum for counting. The cell density was adjusted so that the density of the non-senescent cells was at 4000 cells/100 µL and the density of the senescent cells was at 7000 cells/100 µL. The cell suspension was added to the 96-well transparent cell culture plates at 100 µL per well. Note that the edge wells of the 96-well plate were not used for the test wells, and 300 µL PBS is added separately to reduce the medium evaporation. The cell-spread 96-well plates were put back into the incubator at 37°C for the overnight incubation until the cells adhered to the wall.
(§2) Formulation of the drug concentration gradients: After the cells adhered to the wall on the second day, the small molecule compounds (d-12, d-11, and d-4) to be tested for activity are ready to be added. […] 3 parallel replicate wells were set up for each test drug concentration. The 96-well plate was put back into the incubator at 37°C, and the cell survival was tested after three days.
(§3) Detection of the cell survival after the drug treatment using the CCK-8 method: Three days after the addition of the drug, the well plate was removed, the supernatant was discarded, and 100 µL of the pre-prepared CCK-8 working solution was added to each well. The CCK-8 working solution was obtained by diluting the CCK8 stock solution (C0041, Beyotime) with the serum-free DMEM medium in 10-fold volume. The 96-well plate added with the CCK-8 working solution was put back to the incubator at 37°C and incubated for 0.5-2 hours. The plate was taken out to determine the absorbance value (OD value) of each well at the wavelength of 450 nm. The cell viability in each experimental group was calculated. The following formula was used: the relative cell viability (%) = […] x 100 %.

senescent HEF cells = assay: Cell killing activity assay (CCK-8), Example 7; details: HEF-induced senescence cell model, up to 25 µM, three days
Method: as §1, §2, §3

senescent A549 cells = assay: Cell killing activity assay (CCK-8), Example 7; details: three days; for selective killing of the senescent cells: A549-induced senescence cell model, up to 25 µM
Method: as §1, §2, §3

non-senescent A549 cells = assay: Cell killing activity assay (CCK-8), Example 7; details: 25 µM
Method: as §1, §2, §3

[1] = test system: induced senescent A549 cell; assay: In vitro compound screening, cell viability test (CCK-8); details: for senescent cell killing activity and selectivity in vitro (screening): induced senescent A549 cell model, Figure 1A
[2] = test system: induced senescent HEF cell; assay: as above; details: HEF-ETO, Figure 1C
Method: Briefly, the human embryonic skin tissues and the fetal lung tissues obtained from the aborted tissues with the patient's informed consent were minced with the forcep and incubated in 1 mg/ml collagenase IV at 37°C for 1-2 hours. After the enzyme treatment, the cells were collected by centrifugation and resuspended in HEF medium (Dulbecco's modified Eagle medium (DMEM, Gibco) containing 10% fetal bovine serum (FBS, Ausbian), 1% GlutaMAX (Gibco), 1% non-essential amino acids (NEAA, Gibco) and 1% penicillin/streptomycin (Gibco). Gibco). Cells were plated on the 10 cm tissue culture dishes and grown in 10% FBS DMEM. […] They were passaged and cryopreserved according to Lonza's method. A549 cells, BJ cells and MRC5 cells were purchased from ATCC and cultured in DMEM medium containing 10% fetal bovine serum (FBS, Ausbian), and 1% penicillin/streptomycin (Gibco).
Cell Counting Kit-8 (CCK-8) assay was used to assess the cell viability. The senescent and non-senescent cells or chondrocytes were seeded into the 96-well plates and cultured overnight. The cells were then treated with control (0.05% DMSO) or different concentrations of the drug to be tested. […] Absorbance was measured at the wavelength of 450 nm.

## Cc1c(-c2ccc(N3CCc4cccc(C(=O)Nc5nc6ccccc6s5)c4C3)nc2C(=O)OC(Cc2cn(CCCN3CCOCC3)nn2)c2ccc(O[C@@H]3O[C@H](CO)[C@H](O)[C@H](O)[C@H]3O)c([N+](=O)[O-])c2)cnn1CC12CC3CC(CC(C3)C1)C2 (stereo partly drawn) [d-12]
non-senescent HEF cells
  killing of the non-senescent cells at the highest concentration: none of the three molecules killed the non-senescent cells
Senescent HEF cells
  selective killing of the senescent cells: selective killing of the senescent cells
Senescent A549 cells
  selective killing of the senescent cells: selective killing of the senescent cells
Senescent A549 cells; Cisplatin-induced senescent A549 cells, CCK-8
  IC50: ~6.9 µM
non-senescent A549 cells
  killing of the non-senescent cells at the highest concentration: none of the three molecules killed the non-senescent cells

## CC(=O)OC[C@H]1O[C@@H](Oc2ccc(C(Cc3cn(CCCN4CCOCC4)nn3)OC(=O)c3nc(N4CCc5cccc(C(=O)Nc6nc7ccccc7s6)c5C4)ccc3-c3cnn(CC45CC6CC(CC(C6)C4)C5)c3C)cc2[N+](=O)[O-])[C@H](OC(C)=O)[C@@H](OC(C)=O)[C@H]1OC(C)=O (stereo partly drawn) [d-11]
non-senescent HEF cells
  killing of the non-senescent cells at the highest concentration: none of the three molecules killed the non-senescent cells
Senescent HEF cells
  selective killing of the senescent cells: selective killing of the senescent cells
Senescent A549 cells
  selective killing of the senescent cells: selective killing of the senescent cells
non-senescent A549 cells
  killing of the non-senescent cells at the highest concentration: none of the three molecules killed the non-senescent cells

## CN(C)CC#Cc1ccc(OCCCc2sc(N3CCc4cccc(C(=O)Nc5nc6ccccc6s5)c4C3)nc2C(=O)O)c(F)c1 [A1155463]
[1]; A549-CDDP, Figure 1B
  killing activity on the senescent cells compared with ABT-263: higher than that of the classical small molecule inhibitor ABT-263
[1]
  senescent cell killing activity and selectivity in vitro (screening): good senescent cell killing activity and selectivity in vitro
[2]
  killing activity on the senescent cells compared with ABT-263: higher than that of the classical small molecule inhibitor ABT-263

## Cc1sc2c(c1C)C(c1ccc(Cl)cc1)=N[C@@H](CC(=O)Nc1ccc(OCCOCCOCCOCCNc3cccc4c3C(=O)N(C3CCC(=O)NC3=O)C4=O)cc1)c1nnc(C)n1-2 (stereo partly drawn) [ARV825]
[1]
  senescent cell killing activity and selectivity in vitro (screening): better in vitro killing activity

## Cc1ncsc1-c1ccc(CNC(=O)[C@@H]2C[C@@H](O)CN2C(=O)[C@@H](NC(=O)COCCOCCOCCNC(=O)C[C@@H]2N=C(c3ccc(Cl)cc3)c3c(sc(C)c3C)-n3c(C)nnc32)C(C)(C)C)cc1 [MZ1]
[1]
  senescent cell killing activity and selectivity in vitro (screening): better in vitro killing activity

## Cc1sc2c(c1C)C(c1ccc(Cl)cc1)=N[C@@H](CC(=O)NCCCCCCCCNC(=O)COc1cccc3c1C(=O)N(C1CCC(=O)NC1=O)C3=O)c1nnc(C)n1-2 (stereo partly drawn) [dBET6]
[1]
  senescent cell killing activity and selectivity in vitro (screening): better in vitro killing activity
